Laboratory results as given in ChEMBL document CHEMBL5113429, “Diazepinone HBV capsid assembly modulators” (Bioorg Med Chem Lett, 2022).
Converted amounts (≈) assume the structure as drawn.

Tests used:
[1] = Thermodynamic solubility in pH 7 buffer; format: physicochemical; conditions: read-out: Therm_solubility
[2] = Intrinsic clearance in human liver microsomes; format: ADME, Microsome; conditions: read-out: CLH
[3] = target: Core antigen (Hepatitis B virus) (UniProt Q03732); experiment: Ratio of EC50 for modulation of capsid assembly in HBV infected in human HepG2.2.15 cells in presence of 40% normal human serum to EC50 for modulation of capsid assembly in HBV infected in human HepG2.2.15 cells in absence of 40% normal human serum; format: cell-based
[4] = Intrinsic clearance in rat liver microsomes; format: ADME, Microsome; conditions: read-out: CLH
[5] = Lipophilicity, log D of compound; format: physicochemical; conditions: octanol/water
[6] = Intrinsic clearance in dog liver microsomes; format: ADME, Canis lupus familiaris, Microsome; conditions: read-out: CLH
[7] = Modulation of capsid assembly in HBV infected in human HepG2.2.15 cells assessed as inhibition of viral DNA replication
[8] = Cmax in Beagle dog at 2.5 mg/kg, po; format: ADME, organism-based, Canis lupus familiaris; design: dose 2.5 mg/kg, route po; conditions: in vivo
[9] = AUC (0 to infinity) in Beagle dog at 2.5 mg/kg, po; format: ADME, organism-based, Canis lupus familiaris; design: time infinity, dose 2.5 mg/kg, route po; conditions: in vivo
[10] = Tmax in rat at 5 mg/kg, po; format: ADME, organism-based; conditions: in vivo
[11] = Volume of distribution at steady state in rat at 5 mg/kg, po or 1.25 mg/kg, iv; format: ADME, organism-based; conditions: in vivo
[12] = Oral bioavailability in rat at 5 mg/kg; format: ADME, organism-based; conditions: in vivo
[13] = Intrinsic clearance in dog hepatocytes; format: ADME, cell-based, Canis lupus familiaris, Hepatocyte; conditions: read-out: CLH
[14] = Volume of distribution at steady state in mouse at 10 mg/kg, po or 2.5 mg/kg, iv; format: ADME, organism-based; conditions: in vivo
[15] = Protein binding in human plasma; format: ADME, cell-free; conditions: read-out: PPB (converted)
[16] = Protein binding in mouse plasma; format: ADME, cell-free; conditions: read-out: PPB (converted)
[17] = Intrinsic clearance in mouse liver microsomes; format: ADME, Microsome; conditions: read-out: CLH
[18] = Intrinsic clearance in mouse hepatocytes; format: ADME, cell-based, Hepatocyte; conditions: read-out: CLH
[19] = Tmax in mouse at 10 mg/kg, po; format: ADME, organism-based; conditions: in vivo
[20] = Oral bioavailability in mouse at 10 mg/kg; format: ADME, organism-based; conditions: in vivo
[21] = Intrinsic clearance in human hepatocytes; format: ADME, cell-based, Hepatocyte; conditions: read-out: CLH
[22] = Cmax in rat at 5 mg/kg, po; format: ADME, organism-based; design: dose 5 mg/kg, route po; conditions: in vivo
[23] = Intrinsic clearance in rat hepatocytes; format: ADME, cell-based, Hepatocyte; conditions: read-out: CLH
[24] = Half life in mouse at 10 mg/kg, po or 2.5 mg/kg, iv; format: ADME, organism-based; conditions: in vivo
[25] = AUC (0 to infinity) in mouse at 10 mg/kg, po; format: ADME, organism-based; design: time infinity, dose 10 mg/kg, route po; conditions: in vivo
[26] = Protein binding in rat plasma; format: ADME, cell-free; conditions: read-out: PPB (converted)
[27] = Protein binding in dog plasma; format: ADME, cell-free, Canis lupus familiaris; conditions: read-out: PPB (converted)
[28] = Cmax in mouse at 10 mg/kg, po; format: ADME, organism-based; design: dose 10 mg/kg, route po; conditions: in vivo
[29] = Half life in rat at 5 mg/kg, po or 1.25 mg/kg, iv; format: ADME, organism-based; conditions: in vivo
[30] = Tmax in Beagle dog at 2.5 mg/kg, po; format: ADME, organism-based, Canis lupus familiaris; conditions: in vivo
[31] = Oral bioavailability in Beagle dog at 2.5 mg/kg; format: ADME, organism-based, Canis lupus familiaris; conditions: in vivo
[32] = Half life in Beagle dog at 2.5 mg/kg, po or 0.5 mg/kg, iv; format: ADME, organism-based, Canis lupus familiaris; conditions: in vivo
[33] = AUC (0 to infinity) in rat at 5 mg/kg, po; format: ADME, organism-based; design: time infinity, dose 5 mg/kg, route po; conditions: in vivo
[34] = Volume of distribution at steady state in Beagle dog at 2.5 mg/kg, po or 0.5 mg/kg, iv; format: ADME, organism-based, Canis lupus familiaris; conditions: in vivo

Sequence of Core antigen (Hepatitis B virus) (Q03732 as listed by the source): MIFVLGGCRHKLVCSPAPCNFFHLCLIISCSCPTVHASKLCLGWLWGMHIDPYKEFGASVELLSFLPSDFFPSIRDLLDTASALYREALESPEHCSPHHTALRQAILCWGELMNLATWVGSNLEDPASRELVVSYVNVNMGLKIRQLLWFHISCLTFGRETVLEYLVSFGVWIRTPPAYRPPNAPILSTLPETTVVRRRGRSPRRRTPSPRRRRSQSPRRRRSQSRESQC

Work on CN1CCCCn2nc3c(c2C1=O)CN(C(=O)Nc1ccc(F)c(Cl)c1)CC3 yielded a solubility thermodynamic [1] of over 200 µM and a CLint scaled [2] of 16 mL/min/kg.

With CN1CCC(CO)n2nc3c(c2C1=O)CN(C(=O)Nc1ccc(F)c(Cl)c1)CC3 (racemic) the solubility thermodynamic [1] was 195 µM (≈ 82.3 µg/mL) and the CLint scaled [2] was 4.7 mL/min/kg.

Work on CN1CC(OCC(F)F)Cn2nc3c(c2C1=O)CN(C(=O)Nc1ccc(F)c(Cl)c1)CC3 (racemic) yielded a solubility thermodynamic [1] of 181 µM (≈ 85.4 µg/mL) and a CLint scaled [2] of 5.4 mL/min/kg.

Work on C[C@@H]1Cc2nn3c(c2CN1C(=O)Nc1ccc(F)c(C#N)c1)C(=O)N(C)O[C@@H](CF)C3 yielded a Ratio EC50 [3] of 2.

Compound CN1CC(F)Cn2nc3c(c2C1=O)CN(C(=O)Nc1ccnc(Br)c1F)CC3 (racemic) has a solubility thermodynamic [1] of 170 µM (≈ 77.4 µg/mL) and a CLint scaled [2] of 5 mL/min/kg.

CN1CC(F)Cn2nc3c(c2C1=O)CN(C(=O)Nc1ccc(F)c(C#N)c1)CC3 (racemic) gave a solubility thermodynamic [1] of 179 µM (≈ 71.7 µg/mL) and a CLint scaled [2] of 5.2 mL/min/kg.

CN1CC(F)Cn2nc3c(c2C1=O)CN(C(=O)Nc1ccc(F)c(Cl)c1)CC3 (racemic) showed a solubility thermodynamic [1] of 183 µM (≈ 75 µg/mL) and a CLint scaled [2] of 12 mL/min/kg.

C[C@@H]1Cc2nn3c(c2CN1C(=O)Nc1ccc(F)c(C#N)c1)C(=O)N(C)C[C@H](F)C3 gave a CLint scaled [4] of 31 mL/min/kg, a logD [5] of 1.96 and a CLint scaled [2] of under 6 mL/min/kg. It also gave a CLint scaled [6] of under 8 mL/min/kg.

CN1CC(CO)Cn2nc3c(c2C1=O)CN(C(=O)Nc1ccc(F)c(Cl)c1)CC3 (racemic) showed a solubility thermodynamic [1] of 191 µM (≈ 80.6 µg/mL) and a CLint scaled [2] of under 5 mL/min/kg.

For CN1C(=O)c2c3c(nn2CCC1CO)CCN(C(=O)Nc1ccc(F)c(Cl)c1)C3 (racemic), the solubility thermodynamic [1] was 189 µM (≈ 79.7 µg/mL) and the CLint scaled [2] was 9 mL/min/kg.

CN1CCCn2nc3c(c2C1=O)CN(C(=O)Nc1ccc(F)c(Cl)c1)CC3 gave a solubility thermodynamic [1] of 195 µM (≈ 76.4 µg/mL) and a CLint scaled [2] of 11 mL/min/kg.

In the case of CC1CN(C)C(=O)c2c3c(nn2C1)CCN(C(=O)Nc1ccc(F)c(Cl)c1)C3 (racemic), the solubility thermodynamic [1] is reported as 182 µM (≈ 73.9 µg/mL) and the CLint scaled [2] is reported as 28 mL/min/kg.

Work on CN1OC(CO)Cn2nc3c(c2C1=O)CN(C(=O)Nc1ccc(F)c(Cl)c1)CC3 (racemic) yielded a solubility thermodynamic [1] of 169 µM (≈ 71.6 µg/mL), an EC50 [7] of 9 nM and a CLint scaled [2] of under 7 mL/min/kg.

In the case of CN1CCn2nc3c(c2C1=O)CN(C(=O)Nc1ccc(F)c(Cl)c1)CC3, the solubility thermodynamic [1] is reported as 179 µM (≈ 67.6 µg/mL) and the CLint scaled [2] is reported as 26 mL/min/kg.

In the case of C[C@@H]1Cc2nn3c(c2CN1C(=O)Nc1ccc(F)c(C#N)c1)C(=O)N(C)C[C@@H](F)C3, the Cmax [8] is reported as 1150 ng/mL, the AUC(0-inf) [9] is reported as 7000 ng·h/mL and the Tmax [10] is reported as 1.33 h. For the same compound, the CLint scaled [4] was 44 mL/min/kg, the solubility thermodynamic [1] was 72 µM (≈ 29.8 µg/mL) and the Vdss [11] was 2.09 L/kg. The bioavailability [12] was 54%, the CLint scaled [13] was under 6.4 mL/min/kg and the Vdss [14] was 0.99 L/kg. For the same compound, the fraction unbound [15] was 0.19, the fraction unbound [16] was 0.34 and the CLint scaled [17] was 28 mL/min/kg. The logD [5] was 1.95, the CLint scaled [2] was under 6 mL/min/kg and the CLint scaled [18] was 101 mL/min/kg. The Tmax [19] was 0.5 h, the bioavailability [20] was 44% and the CLint scaled [21] was 7.7 mL/min/kg. It also gave a Cmax [22] of 98 ng/mL, a Ratio EC50 [3] of 1.5 and a CLint scaled [23] of 57 mL/min/kg. For the same compound, the half-life [24] was 0.51 h, the AUC(0-inf) [25] was 1930 ng·h/mL and the fraction unbound [26] was 0.38. It also gave a fraction unbound [27] of 0.23, a Cmax [28] of 1270 ng/mL and a half-life [29] of 1.92 h. It also gave a Tmax [30] of 2 h, a bioavailability [31] of 47% and a half-life [32] of 4.3 h. It also gave an AUC(0-inf) [33] of 697 ng·h/mL, a CLint scaled [6] of under 6 mL/min/kg and a Vdss [34] of 1 L/kg.

Work on CN1CC(F)Cn2nc3c(c2C1=O)CN(C(=O)Nc1ccc(F)c(Br)c1)CC3 (racemic) yielded a solubility thermodynamic [1] of 191 µM (≈ 86.8 µg/mL) and a CLint scaled [2] of 22 mL/min/kg.

Compound CN1CC(C(F)F)Cn2nc3c(c2C1=O)CN(C(=O)Nc1ccc(F)c(Cl)c1)CC3 (racemic) has a solubility thermodynamic [1] of 175 µM (≈ 77.3 µg/mL) and a CLint scaled [2] of 15 mL/min/kg.

CN1CC(F)(F)Cn2nc3c(c2C1=O)CN(C(=O)Nc1ccc(F)c(Cl)c1)CC3 showed a solubility thermodynamic [1] of 181 µM (≈ 77.4 µg/mL) and a CLint scaled [2] of 8.1 mL/min/kg.

For CN1CC(F)Cn2nc3c(c2C1=O)CN(C(=O)Nc1ccc(F)c(C(F)(F)F)c1)CC3 (racemic), the solubility thermodynamic [1] was 175 µM (≈ 77.6 µg/mL) and the CLint scaled [2] was 17 mL/min/kg.

In the case of CN1CC(N(C)C)Cn2nc3c(c2C1=O)CN(C(=O)Nc1ccc(F)c(Cl)c1)CC3 (racemic), the solubility thermodynamic [1] is reported as 187 µM (≈ 81.3 µg/mL) and the CLint scaled [2] is reported as 14 mL/min/kg.
